How the values were obtained:
[1] = Penetration through GI tract after oral gavage (IVIS, confocal microscopy)
Procedure: DTA SNPs encapsulating a near-infrared fluorescent dye, IR780, were prepared and administered to mice via oral gavage. After one hour, the GI tract was isolated, extensively washed, and imaged by IVIS®.

[2] = tested on: human breast cancer MDA-MB-231 cells; assay: Toxicity on breast cancer cells in vitro; format: cell-based
Procedure: FIG. 7 is a line graph showing the percentage of growth (%) of human breast cancer MDA-MB-231 cells over different concentrations (μg/mL) of different samples: PTX, DTA SNPs (denoted in this graph as SNPs), PTX-encapsulated DTA SNPs (denoted as PTX-SNPs).
Human breast adenocarcinoma cell line, MDA-MB-231 cells, were purchased from American Type Culture Collection (ATCC, Rockville, Md., USA). Cells were grown in DMEM medium (Invitrogen) supplemented with 10% fetal bovine serum (FBS, Invitrogen), 100 units/mL penicillin, and 100 µg/mL streptomycin (Invitrogen) in a 37° C. incubator containing 5% CO2.

MDA-MB-231 tumors = assay: Oral treatment of mice bearing MDA-MB-231 tumors; format: in vivo; details: twice a week
Procedure: The therapeutic benefit of PTX-loaded DTX SNPs was evaluated for treatment of […]. Mice bearing MDA-MB-231 tumors of ˜50 mm^3 size were treated twice a week with orally injected saline (as a control), empty DTA SNPs, free PTX, or PTX-loaded DTX SNPs (denoted as PTX-SNPs). Tumor volumes were measured three times a week. Mice were euthanized when tumor volume reached ˜1000 mm^3, at which point the tumors were excised and fixed in formalin for immunohistochemistry. Serial sections were obtained and stained with TUNEL for analysis of cellular apoptosis. The growth curve was plotted using the mean of the tumor volumes for each treatment group, at each time point.

[3] = tested on: MDA-MB-231 flank tumor model; assay: Intravenous treatment of flank tumor model with PTX-loaded OA SNPs; format: in vivo; details: over 30 days following treatment
Procedure: Next, drug delivery via encapsulation in OA SNPs was assayed in treating the flank tumor model.

[4] = in vivo, cited from earlier work

Molecule: CCCN1/C(=C/C=C2\CCCC(/C=C/C3=[N+](CCC)c4ccccc4C3(C)C)=C2Cl)C(C)(C)c2ccccc21.[I-] [IR780]
- location in GI tract ([1]; one hour after oral gavage, IR780, IVIS imaging): located mostly in the stomach

Molecule: CC(=O)O[C@H]1C(=O)[C@@]2(C)[C@H]([C@H](OC(=O)c3ccccc3)[C@]3(O)C[C@H](OC(=O)[C@H](O)[C@@H](NC(=O)c4ccccc4)c4ccccc4)C(C)=C1C3(C)C)[C@]1(OC(C)=O)CO[C@@H]1C[C@@H]2O [PTX, paclitaxel]
- toxicity on MDA-MB-231 cells [2]: comparable toxicity
- reduction of tumor volumes compared to saline control (MDA-MB-231 tumors): 21%
- tumor volume / tumor growth [3]: grew substantially
- oral bioavailability ([4]; po): less than 2%

Molecule: C[C@@H]1CC[C@H]2[C@@H](C)C(=O)O[C@@H]3O[C@@]4(C)CC[C@@H]1[C@]32OO4 [Artemisinin, artemisinin]
- bioavailability [4]: less than 10%

Molecule: CCN(CC)c1ccc2c(-c3ccccc3C(=O)O)c3ccc(=[N+](CC)CC)cc-3oc2c1.[Cl-] [rhodamine B]
- fluorescence in intestinal villi ([1]; oral administration, confocal microscopy): limited fluorescence

Molecule: GLP-1
- half-life in the circulatory system [4]: < 2 min
